Laboratory results: PubChem BioAssay (NCI)
Converted amounts (≈) assume the structure as drawn.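 Results reflect a 48-hour exposure of cells in 96-well plates to compound at five concentrations. GI50: concentration for 50% inhibition of growth. TGI: total growth inhibition.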

Tests used:
Assay in all cases: DTP human tumour cell line panel, 48 h
[1] = system: SN12C renal
[2] = system: KM12 colon
[3] = system: MCF7 breast
[4] = system: SK-MEL-28 melanoma
[5] = system: SF-539 CNS
[6] = system: PC-3 prostate
[7] = system: COLO 205 colon
[8] = system: TK-10 renal
[9] = system: HCT-116 colon
[10] = system: SF-268 CNS

c1ccc(-c2c(-c3ccccc3)[n+](Cc3ccc4ccccc4c3)c(-c3ccc(-c4nc5ccccc5s4)cc3)n2Cc2ccc3ccccc3c2)cc1
GI50 [1]: 0.218 µM
TGI [1]: 1.04 µM
GI50 [2]: 0.13 µM
TGI [2]: 0.336 µM
GI50 [3]: 0.0587 µM
TGI [3]: 0.337 µM
GI50 [4]: 0.368 µM
TGI [4]: 1.57 µM
GI50 [5]: 0.305 µM
TGI [5]: 1.24 µM
GI50 [6]: 0.111 µM
TGI [6]: 0.528 µM

COC(=O)C(Cc1cn(C(C)n2cc(CC(NC(C)=O)C(=O)OC)c3ccccc32)c2ccccc12)NC(C)=O (configuration not stated)
TGI [1]: > 100 µM
TGI [2]: > 100 µM
TGI [7]: > 100 µM
TGI [4]: > 100 µM
TGI [8]: > 100 µM
TGI [9]: > 100 µM
TGI [6]: > 100 µM
TGI [10]: > 100 µM

O=C1NN(C2=NNC3(C(=O)N2)c2ccccc2-c2ccccc23)C(c2ccccc2)=N/C1=C/c1ccc(Cl)cc1
GI50 [1]: 53.5 µg/mL
TGI [1]: > 150 µg/mL
GI50 [2]: 33.4 µg/mL
TGI [2]: 96.2 µg/mL
GI50 [3]: 35.8 µg/mL
TGI [3]: 144 µg/mL
GI50 [7]: 69.2 µg/mL (≈ 127 µM)
TGI [7]: > 150 µg/mL
GI50 [4]: 63 µg/mL
TGI [4]: > 150 µg/mL
GI50 [8]: 50.5 µg/mL (≈ 92.6 µM)
TGI [8]: 132 µg/mL
GI50 [5]: 50.9 µg/mL
TGI [5]: > 150 µg/mL
GI50 [9]: 51.2 µg/mL (≈ 94 µM)
TGI [9]: > 150 µg/mL
GI50 [6]: 44.7 µg/mL
TGI [6]: > 150 µg/mL
GI50 [10]: 61 µg/mL (≈ 112 µM)
TGI [10]: > 150 µg/mL

O=C(O)c1nc2ccc(C(F)(F)F)cc2[nH]c1=O
TGI [1]: > 100 µM
TGI [2]: > 100 µM
TGI [3]: > 100 µM
TGI [7]: > 100 µM
TGI [4]: > 100 µM
TGI [8]: > 100 µM
TGI [5]: > 100 µM
TGI [9]: > 100 µM
TGI [6]: > 100 µM
TGI [10]: > 100 µM

CN(/N=C1\C(=O)Nc2ccccc21)c1ccccc1
TGI [2]: > 100 µM
TGI [3]: > 100 µM
TGI [4]: > 100 µM
TGI [8]: > 100 µM
TGI [5]: > 100 µM
TGI [9]: > 100 µM
TGI [6]: > 100 µM
TGI [10]: > 100 µM

CN(C)CCNC(=O)c1cccc2c1Nc1ccccc1S2
TGI [1]: 26.1 µM
TGI [2]: 26.4 µM
TGI [3]: 27 µM
TGI [7]: 25.8 µM
TGI [4]: 27.7 µM
TGI [5]: 28.8 µM
TGI [9]: 25 µM
TGI [10]: 31.7 µM

CO/N=C1\CC(NC(=O)C(F)(F)F)c2ccsc21 (configuration not stated)
TGI [1]: > 100 µM
TGI [3]: > 100 µM
TGI [7]: > 100 µM
TGI [4]: > 100 µM
TGI [8]: > 100 µM
TGI [5]: > 100 µM
TGI [9]: > 100 µM
TGI [6]: > 100 µM
TGI [10]: > 100 µM

CC(=O)NNc1nc(C)c(C(=O)NNC(=O)C(=O)Nc2ccc([N+](=O)[O-])cc2[N+](=O)[O-])s1
TGI [1]: > 100 µM
TGI [2]: > 100 µM
TGI [7]: > 100 µM
TGI [4]: > 100 µM
TGI [8]: > 100 µM
TGI [5]: > 100 µM
TGI [9]: > 100 µM
TGI [10]: > 100 µM

O=c1oc2ccccc2c(O)c1Cc1ccc(Cc2c(O)c3ccccc3oc2=O)cc1
TGI [1]: > 100 µM
TGI [3]: > 100 µM
TGI [7]: > 100 µM
TGI [4]: > 100 µM
TGI [8]: > 100 µM
TGI [5]: > 100 µM
TGI [9]: > 100 µM
TGI [6]: > 100 µM
TGI [10]: > 100 µM
